Measurements from patent publication US12241085B2, “Human pluripotent stem cell derived neurodegenerative disease models on a microfluidic chip” (priority 2018, dated 2025).

Key:
[1] = tested on: iBMECs co-cultured with primary human astrocytes and pericytes; assay: TNFα perfusion of blood compartment of organ-chip with iBMECs, astrocytes and pericytes; format: cell-based; settings: 10 or 100 ng/ml overnight in blood compartment
Excerpt: While astrocytes and iBMECs can remain in their respective channels, astrocytes processes protruded through the pores to form direct cell-to-cell contact with the iBMECs, mimicking the astrocyte-end-feet observed in vivo.
In order to quantify the percentage of vascular surface covered with astrocyte protrusions (end-feet like structures), the vascular surface of the are washed in DMEM (without FBS) and stained with the fluorescently labeled wheat germ agglutinin (WGA-647 Invitrogen), a […] able to bind to the vascular glycocalyx (DOI: 10.1002jemt.22602). After 15 minutes at room temperature, chips were rinsed twice with fresh DMEM, fixed in 2% PFA for 20 minutes at room temperature and stained for the astrocyte marker GFAP (Abcam). Following incubation with the anti-mouse secondary antibody (Invitrogen, Alexa Fluor 488) and HOECHS (Abcam) chips were washed in PBS and imaged via confocal microscopy (Zeiss LSM850).
The area underneath the porous membrane was localized using the WGA-647 signal (that stained the whole endothelial surface) and the nuclear fluorescence signal (HOECHST) of endothelial cells. Then, five random areas of each chip were imaged using the GFAP fluorescent (488) signal using a 10× objective (Zeiss). ImageJ software was used to subtract background and then convert the digital signal detected in the GFAP channel into a binary image. Finally, percentage of signal coverage was computed from the binary image as the ratio of bright pixels to the total number of pixels in the image. Image processing and quantification was performed with an automatic macro compiled in ImageJ in order to ensure unbiased signal measurements. Numerical values were collected and statistically analyzed using Graphpad Prism V7.

[2] = as stated for the marketed drug; cited from earlier work

In the case of TNFα, the “blood-to-brain leakage of dextran after vascular stimulation” value [1] is reported as “increase in blood-to-brain leakage”, the “astrocyte end-feet-like structures covering the vascular surface” value ([1]; vs control) is reported as “decrease in end-feet-like structures” and the astrocyte morphology ([1]; vs control) is reported as “change in astrocyte morphology”.
In the case of CC[C@@H](C(N)=O)N1CCCC1=O [Levetiracetam], the “known BBB permeability” value [2] is listed as “can efficiently penetrate the BBB”.
